Experimental data reported in US20090093469A1, “Phenylaminopropanol Derivatives and Methods of Their Use” (WYETH, priority 2004, published 2009).
Structures can show the parent of a compound that is named as a salt.

Molecular target: T1, hNET (Homo sapiens, UniProt P23975)
T1 construct: expressed in transfected cells
Assay: Norepinephrine (NE) uptake assay in MDCK-Net6 cells stably transfected with human hNET
Type: cell-based
Conditions: MDCK-Net6, read-out: % Inhibition @ 1 μM (hNET)
Description: Cells were plated at 300,000/T75 flask and cells were split twice weekly. […] Cells were plated at 250,000 cells/T75 flask and split twice weekly.
On day 1, cells were plated at 3,000 cells/well in growth medium and maintained in a cell incubator (37° C., 5% CO2). On day 2, growth medium was replaced with 200 μl of assay buffer (25 mM HEPES; 120 mM NaCl; 5 mM KCl; 2.5 mM CaCl2; 1.2 mM MgSO4; 2 mg/ml glucose (pH 7.4, 37° C.)) containing 0.2 mg/ml ascorbic acid and 10 μM pargyline. Plates containing cells with 200 μl of assay buffer were equilibrated for 10 minutes at 37° C. prior to addition of compounds. A stock solution of desipramine was prepared in DMSO (10 mM) and delivered to triplicate wells containing cells for a final test concentration of 1 μM. Data from these wells were used to define non-specific NE uptake (minimum NE uptake). Test compounds were prepared in DMSO (10 mM) and diluted in assay buffer according to test range (1 to 10,000 nM). Twenty-five microliters of assay buffer (maximum NE uptake) or test compound were added directly to triplicate wells containing cells in 200 μl of assay buffer. The cells in assay buffer with test compounds were incubated for 20 minutes at 37° C. To initiate the NE uptake, [^3H]NE diluted in assay buffer (120 nM final assay concentration) was delivered in 25 μl aliquots to each well and the plates were incubated for 5 minutes (37° C.). The reaction was terminated by decanting the supernatant from the plate. The plates containing cells were washed twice with 200 μl assay buffer (37° C.) to remove free radioligand. The plates were then inverted, left to dry for 2 minutes, then reinverted and air-dried for an additional 10 minutes. The cells were lysed in 25 μl of 0.25 N NaOH solution (4° C.), placed on a shake table and vigorously shaken for 5 minutes. After cell lysis, 75 μl of scintillation cocktail was added to each well and the plates were sealed with film tape. The plates were returned to the shake table and vigorously shaken for a minimum of 10 minutes to ensure adequate partitioning of organic and aqueous solutions. The plates were counted in a Wallac Microbeta counter (PerkinElmer) to collect the raw cpm data.
For each experiment, a data stream of cpm values collected from the Wallac Microbeta counter was downloaded to a Microsoft Excel statistical application program. Calculations of EC50 values were made using the transformed-both-sides logistic dose response program written by Wyeth Biometrics Department.

T1 sequence (P23975 whole entry): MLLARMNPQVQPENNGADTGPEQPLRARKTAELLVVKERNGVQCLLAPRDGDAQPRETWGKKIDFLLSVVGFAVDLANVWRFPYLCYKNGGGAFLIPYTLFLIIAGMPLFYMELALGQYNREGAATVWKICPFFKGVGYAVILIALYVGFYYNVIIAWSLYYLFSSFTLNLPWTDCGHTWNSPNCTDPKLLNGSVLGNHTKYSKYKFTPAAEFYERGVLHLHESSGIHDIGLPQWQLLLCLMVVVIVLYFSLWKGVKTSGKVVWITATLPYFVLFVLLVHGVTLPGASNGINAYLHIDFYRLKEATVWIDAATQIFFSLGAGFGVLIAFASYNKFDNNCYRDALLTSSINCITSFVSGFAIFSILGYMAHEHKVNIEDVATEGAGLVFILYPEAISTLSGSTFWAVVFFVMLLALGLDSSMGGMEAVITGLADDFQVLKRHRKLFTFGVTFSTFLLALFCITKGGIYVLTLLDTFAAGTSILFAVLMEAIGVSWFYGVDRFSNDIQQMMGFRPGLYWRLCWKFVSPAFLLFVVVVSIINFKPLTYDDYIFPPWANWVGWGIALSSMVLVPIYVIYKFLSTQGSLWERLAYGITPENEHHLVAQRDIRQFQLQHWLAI

Compound | inhibition at 1 µM [%]
CNC[C@@H](O)[C@H](c1ccccc1)n1c(=O)n(C(C)C)c2cccc(F)c21 [Example 201, 4-Fluoro-3-(2-hydroxy-3-methylamino-1-phenyl-propyl)-1-isopropyl-1,3-dihydro-benzimidazol-2-one hydrochloride] | 98.8
CCn1c(=O)n([C@@H](c2ccccc2)[C@H](O)CNC)c2c(F)cccc21 [Example 207, 1-Ethyl-4-fluoro-3-[(1S,2R)-2-hydroxy-3-(methylamino)-1-phenylpropyl]-1,3-dihydro-2H-benzimidazol-2-one hydrochloride] | 98.3
CNC[C@@H](O)[C@H](c1cccc(F)c1)n1ccc2cc(Cl)ccc21 [Example 153, (1S,2R)-1-(5-chloro-1H-indol-1-yl)-1-(3-fluorophenyl)-3-(methylamino)propan-2-ol hydrochloride] | 97.4
CNC[C@@H](O)[C@H](c1cccc(F)c1)n1ccc2ccc(Cl)cc21 [Example 151, (1S,2R)-1-(6-chloro-1H-indol-1-yl)-1-(3-fluorophenyl)-3-(methylamino)propan-2-ol hydrochloride] | 94.3
CNC[C@@H](O)[C@H](c1cccc(F)c1)n1ccc2c(F)cccc21 [Example 184, (1S,2R)-1-(4-fluoro-1H-indol-1-yl)-1-(3-fluorophenyl)-3-(methylamino)propan-2-ol hydrochloride] | 99.7
CNC[C@@H](O)[C@H](c1ccc(Cl)cc1)n1ccc2ccccc21 [Example 34, (1S,2R)-1-(4-chlorophenyl)-1-(1H-indol-1-yl)-3-(methylamino)propan-2-ol hydrochloride] | 78.4
Cc1cn([C@H](c2ccccc2)[C@@H](O)CN)c2ccccc12 (racemic) [Example 24, (1RS,2SR)-3-amino-1-(3-methyl-1H-indol-1-yl)-1-phenylpropan-2-ol hydrochloride] | 57.2
CNC[C@@H](O)[C@H](c1cccc(F)c1)n1ccc2c(Br)cccc21 [Example 125, (1S,2R)-1-(4-bromo-1H-indol-1-yl)-1-(3-fluorophenyl)-3-(methylamino)propan-2-ol hydrochloride] | 94.3
CNC[C@@H](O)[C@H](c1cccc(Br)c1)n1ccc2ccccc21 [Example 43, (1S,2R)-1-(3-bromophenyl)-1-(1H-indol-1-yl)-3-(methylamino)propan-2-ol hydrochloride] | 99
CNC[C@@H](O)[C@H](c1ccccc1F)n1ccc2ccccc21 [Example 50, (1S,2R)-1-(2-fluorophenyl)-1-(1H-indol-1-yl)-3-(methylamino)propan-2-ol hydrochloride] | 91.8
CNC[C@@H](O)[C@H](c1ccccc1)n1ccc2cc(OC)ccc21 [Example 76, (1S,2R)-1-(5-methoxy-1H-indol-1-yl)-3-(methylamino)-1-phenylpropan-2-ol hydrochloride] | 75.2
CNC[C@@H](O)[C@H](c1cccc(F)c1)n1ccc2ccccc21 [Example 47, (1S,2R)-1-(3-fluorophenyl)-1-(1H-indol-1-yl)-3-(methylamino)propan-2-ol hydrochloride] | 99.9
CNC[C@@H](O)[C@@H](c1ccccc1)n1ccc2ccccc21 (racemic) [Example 16, (1RS,2RS)-1-(1H-indol-1-yl)-3-(methylamino)-1-phenylpropan-2-ol hydrochloride] | 96.8

Same assay, conditions: test compound 1 μM; [3H]NE uptake, MDCK-Net6 cells; read-out: % Inhibition @ 1 μM (hNET)

Compound | inhibition at 1 µM [%]
CNC[C@@H](O)[C@H](c1ccccc1)n1ccc2cc(Br)ccc21 [Example 126, (1S,2R)-1-(5-bromo-1H-indol-1-yl)-3-(methylamino)-1-phenylpropan-2-ol hydrochloride] | 92.9
CNC[C@@H](O)[C@H](c1ccc(OC(F)(F)F)cc1)n1ccc2ccccc21 (racemic) [Example 39, (1RS,2SR)-1-(1H-indol-1-yl)-3-(methylamino)-1-[4-(trifluoromethoxy)phenyl]propan-2-ol hydrochloride] | 57.4
CNC[C@@H](O)[C@H](c1ccccc1)n1ccc2c(Br)cccc21 [Example 124, (1S,2R)-1-(4-bromo-1H-indol-1-yl)-3-(methylamino)-1-phenylpropan-2-ol hydrochloride] | 91.5
CNC[C@@H](O)[C@H](c1cccc(F)c1)n1ccc2ccncc21 [Example 86, (1S,2R)-3-methylamino-1-(3-fluorophenyl)-1-(1H-pyrrolo[2,3-c]pyridin-1-yl) propan-2-ol dihydrochloride] | 52.7
CNC[C@@H](O)[C@H](c1ccc(F)cc1)n1cc(C)c2ccccc21 [Example 49, (1S,2R)-1-(4-fluorophenyl)-3-(methylamino)-1-(3-methyl-1H-indol-1-yl)propan-2-ol hydrochloride] | 101
OC(CNC1CC1)C(c1cccc(F)c1)n1ccc2ccccc21 (stereo in doubt) [Example 111, (1S,2R)-3-(cyclopropylamino)-1-(3-fluorophenyl)-1-(1H-indol-1-yl)propan-2-ol hydrochloride] | 42.7
CNC[C@@H](O)[C@H](c1ccccc1)n1ccc2c(OC)cccc21 (racemic) [Example 74, (1RS,2SR)-1-(4-methoxy-1H-indol-1-yl)-3-(methylamino)-1-phenyl propan-2-ol hydrochloride] | 67
CNC[C@@H](O)[C@H](c1ccccc1)n1ccc2c(F)cccc21 [Example 182, (1S,2R)-1-(4-fluoro-1H-indol-1-yl)-3-(methylamino)-1-phenylpropan-2-ol hydrochloride] | 97.1
Cc1cn([C@@H](c2ccccc2)[C@H](O)CN)c2ccc(Cl)cc12 [Example 120, (1S,2R)-3-amino-1-(5-chloro-3-methyl-1H-indol-1-yl)-1-phenylpropan-2-ol hydrochloride] | 68.6
CNC[C@@H](O)[C@H](c1ccccc1)n1ccc2ccc(F)cc21 [Example 186, (1S,2R)-1-(6-fluoro-1H-indol-1-yl)-3-(methylamino)-1-phenylpropan-2-ol hydrochloride] | 96.6
CNC[C@@H](O)[C@H](c1cc(F)cc(F)c1)N1CCc2ccc(F)cc21 [Example 174, (1S,2R)-1-(3,5-difluorophenyl)-1-(6-fluoro-2,3-dihydro-1H-indol-1-yl)-3-(methylamino)propan-2-ol hydrochloride] | 99.1
CNC[C@@H](O)[C@H](c1ccccc1)N1C(=O)C2(CCCC2)c2ccccc21 [Example 108, 1′-[(1S,2R)-2-hydroxy-3-(methylamino)-1-phenylpropyl]spiro-[cyclopentane-1,3′-indol]-2′(1′H)-one hydrochloride] | 98.7
CNC[C@@H](O)[C@H](c1cccc(F)c1)n1cc(-c2ccccc2F)c2ccccc21 [Example 114, (1S,2R)-1-(3-fluorophenyl)-1-[3-(2-fluorophenyl)-1H-indol-1-yl]-3-(methylamino)propan-2-ol hydrochloride] | 100
CNC[C@@H](O)[C@H](c1ccccc1)n1ccc2cc(C)ccc21 [Example 95, (1S,2R)-3-(methylamino)-1-(5-methyl-1H-indol-1-yl)-1-phenylpropan-2-ol hydrochloride] | 97.6
CNC[C@@H](O)[C@H](c1cccc(F)c1)n1cc(-c2ccc(C)cc2)c2ccccc21 [Example 170, (1S,2R)-1-(3-fluorophenyl)-3-(methylamino)-1-[3-(4-methylphenyl)-1H-indol-1-yl]propan-2-ol hydrochloride] | 96.4
CNC[C@@H](O)[C@H](c1cccc(F)c1)n1ccc2ccc(OC)cc21 [Example 81, (1S,2R)-1-(3-fluorophenyl)-1-(6-methoxy-1H-indol-1-yl)-3-(methyl-amino)propan-2-ol hydrochloride] | 58
CNC[C@@H](O)[C@H](c1cccc(F)c1)n1cc(C(C)(C)C)c2ccccc21 [Example 189, (1S,2R)-1-(3-tert-butyl-1H-indol-1-yl)-1-(3-fluorophenyl)-3-(methylamino)propan-2-ol] | 99.3
CNC[C@@H](O)[C@H](c1ccccc1)n1cc(C)c2cc(Cl)ccc21 [Example 119, (1S,2R)-1-(5-chloro-3-methyl-1H-indol-1-yl)-3-(methylamino)-1-phenylpropan-2-ol hydrochloride] | 96.3
CNC[C@@H](O)[C@H](c1ccccc1)N1CCc2cc(Cl)ccc21 [Example 87, (1S,2R)-1-(5-chloro-2,3-dihydro-1H-indol-1-yl)-3-(methylamino)-1-phenylpropan-2-ol hydrochloride] | 99.7
